From patent US20250059208A1, “KRAS MODULATING COMPOUNDS” (priority 2023, published 2025)
Like-named read-outs stand apart in the source and are kept apart here.

How the values were obtained:
[1] = test system: cellular pERK in ASPC-1 (KRAS G12D) cell-line; assay: Cell based pERK assay, ASPC-1; settings: ASPC-1 (KRAS G12D) cells, 2 hours compound incubation, HTRF Phospho-ERK1/2
Description: (§1) Compounds were tested in a 384-well assay format for their ability to inhibit cellular pERK in Kuramochi (WT KRAS), MIA-PaCa-2 (KRAS-G12C), ASPC-1 (KRAS G12D), and NCI-H441 (KRAS-G12V) cell-lines. Compounds were serially diluted (1:3) in DMSO. On day −1, 80 μL of cells were plated per well in the 384 well tissue-culture plates (Greiner: Cat #781080) to seed 5000 cells per wells of AsPC-1 or 7500 cells of MIA-PaCa-2, NCI-H441, and Kuramochi cell lines in RPMI (Corning: Cat #10-040-CM) with 10% fetal bovine serum (FBS) (HyClone: Cat #SH30071-03) and IX penicillin-streptomycin-glutamate (PSG) (Corning: Cat #30-009-C1) for […] and Kuramochi cell lines and DMEM (Corning: Cat #15-018-CM) with 10% FBS and 1×PSG for MIA-PaCa-2 cell line. The plates were then incubated overnight at 37° C. and 5% CO2. On day 0, 400 nL of compound/well was added into the cell plates and mixed 5 times by pipetting using a Beckmann Biomek FX. The cell plates were then incubated for 2 hours at 37° C. and 5% CO2. HTRF Advanced Phospho-ERK1/2 (THR202/TYR204) Detection Kits (PerkinElmer: Cat #64AERPEG) were used to prepare the lysis and detection solution according to manufacturer protocol. Following the 2 hour incubation, 70 μL of medium was aspirated from the plates and 10 μL of lysis and detection solution was added to the plates using a Biotek EL406 washer and dispenser. Plates were sealed and stored overnight at room temperature. HTRF ratio (665 nm/615 nm) was read by Envision multimode reader (PerkinElmer) the next day. The TR-FRET ratios were normalized to a positive (saturating concentration of known inhibitor) and negative (DMSO) control and plotted against the log of compound concentration.

[2] = test system: cellular pERK in Kuramochi (WT KRAS) cell-line; assay: Cell based pERK assay, Kuramochi; settings: Kuramochi (WT KRAS) cells, 2 hours compound incubation, HTRF Phospho-ERK1/2
Description: as §1

GDP-loaded KRAS-G12C = GDP-loaded KRAS-G12C (Homo sapiens, UniProt P01116, G12C); assay: KRAS (GDP) biochemical TR-FRET probe displacement assay, G12C; type: binding; settings: 2 hours at room temperature
Chain of GDP-loaded KRAS-G12C (P01116 1-188 isoform P01116-2 G12C): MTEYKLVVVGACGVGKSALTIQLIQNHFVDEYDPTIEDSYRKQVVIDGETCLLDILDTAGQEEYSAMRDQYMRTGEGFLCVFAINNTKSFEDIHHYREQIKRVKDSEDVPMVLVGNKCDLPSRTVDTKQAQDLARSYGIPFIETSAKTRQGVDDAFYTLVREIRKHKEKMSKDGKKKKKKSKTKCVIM
Description: (§2) • Compounds were tested for binding to GDP-loaded wild-type KRAS (WT), KRAS-G12C, KRAS-G12D, and KRAS-G12V in a 384-well assay format using a TR-FRET probe displacement assay in buffer consisting of 50 mM Hepes (pH 7.4), 150 mM NaCl. 5 mM MgCl2 and 0.005% Tween-20. 0.03 nM KRAS was used in this assay with 0.02 nM Eu-streptavidin and 12 nM Cy-5 labelled probe. Compounds were serially diluted (1:3) in DMSO. The LabCyte ECHO Acoustic dispenser was used to pre-spot the assay plates (384-well Non-Binding Surface plates, Corning, Catalog #3824) with 50 nL of compound. 5 μL of 2× enzyme concentration was added to the pre-spotted plates and incubated for 30 minutes before adding 5 μL of 2× concentration of Eu-streptavidin and Cy-5 labelled probe (10 μL final reaction volume). The plates were incubated at room temperature for 2 hours before measuring TR-FRET ratio (665 nm/615 nm) on the Envision multimode plate reader. The ratios were normalized to a positive (saturating concentration of known inhibitor) and negative (DMSO) control and plotted against the log of compound concentration. […]

[3] = molecular target: GDP-loaded wild-type KRAS (WT) (Homo sapiens, UniProt P01116); assay: KRAS (GDP) biochemical TR-FRET probe displacement assay, WT; type: binding; settings: 2 hours at room temperature
Chain of GDP-loaded wild-type KRAS (WT) (P01116 1-188 isoform P01116-2): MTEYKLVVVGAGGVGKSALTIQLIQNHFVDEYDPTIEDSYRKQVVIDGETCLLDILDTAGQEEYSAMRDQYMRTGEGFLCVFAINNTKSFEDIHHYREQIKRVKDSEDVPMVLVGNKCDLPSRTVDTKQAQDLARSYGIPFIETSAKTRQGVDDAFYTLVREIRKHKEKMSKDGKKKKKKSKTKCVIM
Description: as §2

GDP-loaded KRAS-G12V = GDP-loaded KRAS-G12V (Homo sapiens, UniProt P01116, G12V); assay: KRAS (GDP) biochemical TR-FRET probe displacement assay, G12V; type: binding; settings: 2 hours at room temperature
Chain of GDP-loaded KRAS-G12V (P01116 1-188 isoform P01116-2 G12V): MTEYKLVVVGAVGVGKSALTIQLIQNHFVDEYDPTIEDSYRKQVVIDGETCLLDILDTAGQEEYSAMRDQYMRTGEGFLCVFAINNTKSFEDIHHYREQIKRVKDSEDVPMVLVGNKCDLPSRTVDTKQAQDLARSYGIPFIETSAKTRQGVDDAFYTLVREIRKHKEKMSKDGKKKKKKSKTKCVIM
Description: as §2

GDP-loaded KRAS-G12D = GDP-loaded KRAS-G12D (Homo sapiens, UniProt P01116, G12D); assay: KRAS (GDP) biochemical TR-FRET probe displacement assay, G12D; type: binding; settings: 2 hours at room temperature
Chain of GDP-loaded KRAS-G12D (P01116 1-188 isoform P01116-2 G12D): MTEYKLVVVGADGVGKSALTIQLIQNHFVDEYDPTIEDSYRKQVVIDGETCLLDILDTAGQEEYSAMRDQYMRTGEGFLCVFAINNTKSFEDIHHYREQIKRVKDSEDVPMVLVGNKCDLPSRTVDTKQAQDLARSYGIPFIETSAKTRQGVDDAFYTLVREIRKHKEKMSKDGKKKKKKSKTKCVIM
Description: as §2

[4] = test system: cellular pERK in NCI-H441 (KRAS-G12V) cell-line; assay: Cell based pERK assay, NCI-H441; settings: Homo sapiens; NCI-H441 (KRAS-G12V) cells, 2 hours compound incubation, HTRF Phospho-ERK1/2
Description: as §1

[5] = test system: cellular pERK in MIA-PaCa-2 (KRAS-G12C) cell-line; assay: Cell based pERK assay, MIA-PaCa-2; settings: Homo sapiens; MIA-PaCa-2 (KRAS-G12C) cells, 2 hours compound incubation, HTRF Phospho-ERK1/2; read-out: MIAPaCa2 pERK EC50
Description: as §1

| Compound | EC50 ([1]; read-out: AsPC1 pERK EC50) [nM] | EC50 [2] [nM] | IC50 (GDP-loaded KRAS-G12C) [nM] | IC50 [3] [nM] | IC50 (GDP-loaded KRAS-G12V) [nM] | IC50 (GDP-loaded KRAS-G12D) [nM] | EC50 [4] [nM] | EC50 [5] [nM] | EC50 ([1]; Homo sapiens, ASPC1, 2 h) [nM] | EC50 ([2]; 2 h) [nM] |
| --- | --- | --- | --- | --- | --- | --- | --- | --- | --- | --- |
| N#Cc1c(N)sc2c(F)ccc(-c3c(Cl)cc4c(N5CC6(F)CCC(F)(C5)N6)nc(OC[C@@]56CCCN5C[C@H](F)C6)nc4c3F)c12 (single isomer, unassigned) [Example 8-1] | 25.3 | 2.57 | 1.03 | 0.13 | 1 | 1.46 | – | – | – | – |
| N#Cc1c(N)sc2c(F)ccc(-c3c(Cl)cc4c(N5CC6(F)CCC(F)(C5)N6)nc(OC[C@@]56CCCN5C[C@H](F)C6)nc4c3F)c12 (single isomer, unassigned) [Example 8-2] | 614 | 79.8 | 23.3 | 3.31 | 50.1 | 43 | 256 | 65.4 | – | – |
| C#Cc1c(F)ccc2cc(O)cc(-c3c(F)cc4c(N5CC6(F)CCC(F)(C5)N6)nc(OC[C@@]56CCCN5C[C@H](F)C6)nc4c3F)c12 (single isomer, unassigned) [Example 9-1] | 6.2 | 4.25 | 0.17 | 0.18 | 0.19 | 0.32 | – | – | – | – |
| C#Cc1c(F)ccc2cc(O)cc(-c3c(F)cc4c(N5CC6(F)CCC(F)(C5)N6)nc(OC[C@@]56CCCN5C[C@H](F)C6)nc4c3F)c12 (single isomer, unassigned) [Example 9-2] | > 1000 | > 1000 | – | 66.3 | 72.6 | 97.8 | – | – | – | – |
| C#Cc1c(F)ccc2cc(O)cc(-c3ncc4c(N5C[C@]6(F)CC[C@](F)(C5)N6)nc(OC[C@@]56CCCN5C[C@H](F)C6)nc4c3F)c12 [Example 1-1, 4-(4-((1R,5S)-1,5-difluoro-3,8-diazabicyclo[3.2.1]octan-3-yl)-8-fluoro-2-(((2R,7aS)-2-fluorotetrahydro-1H-pyrrolizin-7a(5H)-yl)methoxy)pyrido[4,3-d]pyrimidin-7-yl)-5-ethynyl-6-fluoronaphthalen-2-ol] | – | – | 0.1 | 0.08 | 0.11 | 0.14 | 0.83 | 0.16 | 4.11 | 1.19 |
| C#Cc1c(F)ccc2cccc(-c3ncc4c(N5CC6(F)CCC(F)(C5)N6)nc(OC[C@@]56CCCN5C[C@H](F)C6)nc4c3F)c12 [Example 1-2] | – | – | 38 | 26.6 | 84 | ≥ 100 | 66 | 32.2 | 194 | 11.9 |
| C#Cc1c(F)ccc2cc(O)cc(-c3ncc4c(N5C[C@]6(F)CC[C@](F)(C5)N6)nc(OCC56CCCN5CCC6)nc4c3F)c12 [Example 2-1, 4-(4-((1R,5S)-1,5-difluoro-3,8-diazabicyclo[3.2.1]octan-3-yl)-8-fluoro-2-((tetrahydro-1H-pyrrolizin-7a(5H)-yl)methoxy)pyrido[4,3-d]pyrimidin-7-yl)-5-ethynyl-6-fluoronaphthalen-2-ol] | – | – | – | – | – | – | 17.9 | 6.9 | 71.1 | 11.5 |
| C#Cc1c(F)ccc2cc(O)cc(-c3ncc4c(N5CC6(F)CCC(F)(C5)N6)nc(OC[C@@]56CCCN5[C@H](COc5cc(C(F)(F)F)ncn5)CC6)nc4c3F)c12 [Example 2-3] | – | – | 0.4 | 0.29 | 0.42 | 0.55 | 2.07 | 0.19 | 2.15 | 2.55 |
| C#Cc1c(F)ccc2cc(O)cc(-c3ncc4c(N5CC6(F)CCC(F)(C5)N6)nc(OC[C@@]56CCCN5[C@H](COc5cc(C(F)(F)F)cnn5)CC6)nc4c3F)c12 [Example 2-4] | – | – | 0.27 | 0.21 | 0.24 | 0.36 | 9.86 | 0.29 | 14.9 | 5.56 |
| C#Cc1c(F)c(F)cc2cc(O)cc(-c3c(F)cc4c(N5CC6(F)CCC(F)(C5)N6)nc(OCC56CCCN5CCC6)nc4c3F)c12 [Example 2-5] | – | – | 0.15 | 0.29 | 0.2 | 0.61 | 6.29 | 3.01 | 61.7 | 8.69 |
| C#Cc1c(F)ccc2cc(O)cc(-c3c(Cl)cc4c(N5CC6(F)CCC(F)(C5)N6)nc(OC[C@@]56CCCN5C[C@H](F)C6)nc4c3F)c12 [Example 2-6] | – | – | 2.8 | 5.93 | 9.86 | 25.8 | 6.11 | 1.75 | 27.5 | 5.13 |
| Cc1cc(-c2c(F)cc3c(N4CC5(F)CCC(F)(C4)N5)nc(OC[C@@]45CCCN4C[C@H](F)C5)nc3c2F)c2cccnc2c1N [Example 2-7] | – | – | > 100 | > 100 | > 100 | > 100 | > 1000 | > 1000 | > 1000 | > 1000 |
| C#Cc1c(F)ccc2cccc(-c3ncc4c(N5C[C@]6(F)CC[C@](F)(C5)N6)nc(OCC56CCCN5CCC6)nc4c3F)c12 [Example 3-1, 4-((1R,5S)-1,5-difluoro-3,8-diazabicyclo[3.2.1]octan-3-yl)-7-(8-ethynyl-7-fluoronaphthalen-1-yl)-8-fluoro-2-((tetrahydro-1H-pyrrolizin-7a(5H)-yl)methoxy)pyrido[4,3-d]pyrimidine] | – | – | – | – | – | – | 117 | 38.4 | 368 | 8.71 |
| CCc1c(F)ccc2cc(O)cc(-c3ncc4c(N5CC6(F)CCC(F)(C5)N6)nc(OC[C@@]56CCCN5C[C@H](F)C6)nc4c3F)c12 [Example 4-1, 4-(4-((1R,5S)-1,5-difluoro-3,8-diazabicyclo[3.2.1]octan-3-yl)-8-fluoro-2-(((2R,7aS)-2-fluorotetrahydro-1H-pyrrolizin-7a(5H)-yl)methoxy)pyridol[4,3-d]pyrimidin-7-yl)-5-ethyl-6-fluoronaphthalen-2-ol] | – | – | – | – | – | – | 4.7 | 2.22 | 11.9 | 1.35 |
| CCc1c(F)ccc2cccc(-c3ncc4c(N5CC6(F)CCC(F)(C5)N6)nc(OC[C@@]56CCCN5C[C@H](F)C6)nc4c3F)c12 [Example 4-2] | – | – | – | – | – | – | 507 | 301 | 1030 | 53.3 |
| Fc1ccc2nc(C(F)(F)F)c(-c3c(F)cc4c(N5CC6(F)CCC(F)(C5)N6)nc(OC[C@@]56CCCN5C[C@H](F)C6)nc4c3F)n2c1 [Example 6-3] | – | – | > 100 | > 100 | > 100 | > 100 | – | – | – | – |
| Cc1c(F)c(N)cc(-c2ncc3c(N4CC5(F)CCC(F)(C4)N5)nc(OC[C@@]45CCCN4C[C@H](F)C5)nc3c2F)c1C(F)(F)F [Example 6-4] | – | – | 20.1 | 17.3 | 21.6 | > 100 | – | – | 449 | 11.3 |
